19 compounds from patent US20210188843A1, “QUINOLINE COMPOUNDS AND THEIR PREPARATION AND USE AS ANTIMALARIAL AGENTS” (The United States of America,as represented by the …, priority 2018, published 2021) can be followed below.

Data set [1] in a line: Microsomal stability (rat). In kind it is in vitro ADME. To be noted: rat microsomes, Table 1, read-out: Microsomal Stability (rat) T1/2.
In data set [2] the test system is Asexual parasites of P. falciparum strain 3D7. In words: In vitro drug activity on asexual parasites (SYBR Green assay). Type of data set: cell-based. The conditions noted are these: Plasmodium falciparum; Table 1; P. falciparum 3D7 asexual stage, 72 h; read-out: Asexual EC50. Here is the method: Cell culture. Asexual parasites of P. falciparum strain 3D7 were cultured as described previously [Trager W, et al., Journal of Parasitology 2005, 91: 484-486]. Stage III-V gametocytes were selected and enriched with 3-day treatment with 50 mM N-acetylglucosamine (NAG) and the following Percoll density gradient centrifugation after gametocyte production [Tanaka T Q, et al., Molecular and Biochemical Parasitology, 2011, 177: 160-163]. Gametocytes of HB3 and Dd2 strains were produced and then set up for assay in a similar process. HepG2 cells (ATCC, cat. no. 77400) were cultured in 175-cm^2 tissue culture flasks with 30 ml growth medium at 37° C. in a 5% CO2 humidified atmosphere. Growth medium was made with Dulbecco's Modified Eagle Medium with 10% fetal bovine serum (FBS). Growth medium was replaced every other day and cells were passed at 75% confluence.
Asexual parasites of P. falciparum strain 3D7 were cultured as described previously (Trager, W. et al., J. Parasitol. 2005, 91(3): 484-486). Drug activity on asexual stage parasites was tested using a SYBR Green assay as described previously (Eastman, R. T. et al., Antimicrob. Agents Chemother. 2013, 57(1): 425-435; Smilkstein, M. et al., Antimicrob. Agents Chemother. 2004, 48(5): 1803-1806). Briefly, parasites were diluted to 0.5% parasitemia in complete culture medium with 2% hematocrit and drugs diluted in DMSO (<0.5%) and were loaded into a 96-well plate (200 μl/well). No drug and RBC alone wells were included as positive and background controls, respectively, and each testing condition was examined in duplicated. After 72 h incubation under the standard culture condition and a freeze-thaw lysis step at −80° C. and room temperature, 100 μl/well of lysis buffer containing SYBR Green I was added to the parasite culture and incubated for 30 min at room temperature. The fluorescence of each well was measured at 520 nm following excitation at 490 nm using a FLUOstar Optima™ microplate reader (BMG Labtech).
Compounds were screened against gametocytes and asexual parasites as described in Examples 1 and 2.

The nature of the next data set: Solubility pH 7.4. In kind it is physicochemical. To be noted: aqueous buffer, Table 1.

Values after ≈ are worked out from the molar mass of the structure shown. A value given as a limit tells only on which side of the number the result lay.

In the case of `CCOc1ccc(C#N)cc1-n1c(=N)n(C)c2cnc3ccc(-c4ccc(Cl)cc4)cc3c21` [Compound 19, 3-(8-(4-chlorophenyl)-2-imino-3-methyl-2,3-dihydro-1H-imidazo[4,5-c]quinolin-1-yl)-4-ethoxybenzonitrile], the half-life in data set [1] is more than 30 min. Also, the concentration giving a half-maximal response (EC50) in data set [2] was found to be 778 nM. The compound further registered a solubility in “Solubility pH 7.4” of 26 µg/mL (≈ 57.3 µM).

As for `Cc1ccc(C#N)cc1-n1/c(=N/S(C)(=O)=O)n(C)c2cnc3ccc(-c4ccc(Cl)cc4)cc3c21` [Compound 20, (E)-N-(8-(4-chlorophenyl)-1-(5-cyano-2-methylphenyl)-3-methyl-1,3-dihydro-2H-imidazo[4,5-c]quinolin-2-ylidene)methanesulfonamide], the half-life in data set [1] is more than 30 min. Also, the EC50 in data set [2] was found to be 6.28 nM. In the data set “Solubility pH 7.4”, the solubility is less than 1 µg/mL.

`Cc1ncc(C#N)cc1-n1c(=N)n(C)c2cnc3ccc(-c4ccc(Cl)cc4)cc3c21` [Compound 22, 5-(8-(4-chlorophenyl)-2-imino-3-methyl-2,3-dihydro-1H-imidazo[4,5-c]quinolin-1-yl)-6-methylnicotinonitrile]: the half-life in data set [1] is more than 30 min. The EC50 in data set [2] came to 62.3 nM. In addition, the solubility in the data set “Solubility pH 7.4” was found to be 3.5 µg/mL (≈ 8.24 µM).

Turning to `Cc1ccc(C#N)cc1-n1c(=N)n(C)c2cnc3ccc(-c4ccc(Cl)c(N)c4)cc3c21` [Compound 40, 3-(8-(3-amino-4-chlorophenyl)-2-imino-3-methyl-2,3-dihydro-1H-imidazo[4,5-c]quinolin-1-yl)-4-methylbenzonitrile], the half-life in data set [1] was more than 30 min. For the same compound, the EC50 in data set [2] is 30.8 nM. In the data set “Solubility pH 7.4”, this compound displayed a solubility of more than 43 µg/mL.

Regarding `Cn1c(=N)n(-c2cncc(C#N)c2)c2c3cc(-c4ccc(Cl)cc4)ccc3ncc21` [Compound 45, 5-(8-(4-chlorophenyl)-2-imino-3-methyl-2,3-dihydro-1H-imidazo[4,5-c]quinolin-1-yl)nicotinonitrile], the half-life in data set [1] is more than 30 min. Also, the EC50 in data set [2] came to 130 nM. Besides, the solubility in the data set “Solubility pH 7.4” is 7.8 µg/mL (≈ 19 µM).

For the compound `Cn1c(=N)n(-c2cncc(C(N)=O)c2)c2c3cc(-c4ccc(Cl)cc4)ccc3ncc21` [Compound 46, 5-(8-(4-chlorophenyl)-2-imino-3-methyl-2,3-dihydro-1H-imidazo[4,5-c]quinolin-1-yl)nicotinamide], in data set [1], the half-life was more than 30 min. Also, the EC50 in data set [2] turned out to be 1760 nM. This compound showed a solubility in the data set “Solubility pH 7.4” of 19.9 µg/mL (≈ 46.4 µM).

Consider `Cc1nc(N2CCNCC2)c(C#N)cc1-n1c(=N)n(C)c2cnc3ccc(-c4ccc(Cl)cc4)cc3c21` [Compound 47, 5-(8-(4-chlorophenyl)-2-imino-3-methyl-2,3-dihydro-1H-imidazo[4,5-c]quinolin-1-yl)-6-methyl-2-(piperazin-1-yl)nicotinonitrile], for which the half-life in data set [1] is more than 30 min. In addition, in data set [2], the EC50 was 69.7 nM. Moreover, the solubility in the data set “Solubility pH 7.4” came out at 6 µg/mL (≈ 11.8 µM).

In the case of `Cn1c(=N)n(-c2cnc(N3CCOCC3)c(C#N)c2)c2c3cc(-c4ccc(Cl)cc4)ccc3ncc21` [Compound 50, 5-(8-(4-chlorophenyl)-2-imino-3-methyl-2,3-dihydro-1H-imidazo[4,5-c]quinolin-1-yl)-2-morpholinonicotinonitrile], the half-life in data set [1] was more than 30 min. In addition, in data set [2], the EC50 was determined as 309 nM. The solubility in “Solubility pH 7.4” was less than 1 µg/mL.

`Cn1c(=N)n(-c2cc(C#N)ccc2OC(F)(F)F)c2c3cc(-c4ccc(Cl)cc4)ccc3ncc21` [Compound 54, 3-(8-(4-chlorophenyl)-2-imino-3-methyl-2,3-dihydro-1H-imidazo[4,5-c]quinolin-1-yl)-4-(trifluoromethoxy)benzonitrile]: the half-life in data set [1] was more than 30 min. The EC50 in data set [2] was 1420 nM. In the data set “Solubility pH 7.4”, the solubility is less than 1 µg/mL.

On to `Cn1c(=N)n(C2CCN(C3CCOCC3)CC2)c2c3cc(-c4ccc(Cl)cc4)ccc3ncc21` [Compound 57, 8-(4-chlorophenyl)-3-methyl-1-(1-(tetrahydro-2H-pyran-4-yl)piperidin-4-yl)-1,3-dihydro-2H-imidazo[4,5-c]quinolin-2-imine], for which, in data set [1], the half-life is more than 30 min. Besides, the EC50 in data set [2] worked out at 2520 nM. The solubility in “Solubility pH 7.4” was more than 47 µg/mL.

For `Cn1c(=N)n([C@H]2CC[C@@H](N3CCOCC3)CC2)c2c3cc(-c4ccc(Cl)cc4)ccc3ncc21` [Compound 59, 8-(4-chlorophenyl)-3-methyl-1-((1s,4s)-4-morpholinocyclohexyl)-1,3-dihydro-2H-imidazo[4,5-c]quinolin-2-imine], in data set [1], the half-life was more than 30 min. Also, the EC50 in data set [2] was 13200 nM. The compound also showed a solubility in the data set “Solubility pH 7.4” of more than 47 µg/mL.

`Cc1ccccc1-c1ccc2ncc3c(c2c1)n(-c1cc(C#N)ccc1C)c(=N)n3C` [Compound 61, 3-(2-imino-3-methyl-8-(o-tolyl)-2,3-dihydro-1H-imidazo[4,5-c]quinolin-1-yl)-4-methylbenzonitrile]: the half-life in data set [1] was determined as 10 min. Also, in data set [2], the concentration giving a half-maximal response (EC50) worked out at 1720 nM. The amount in solution in “Solubility pH 7.4” (solubility) came to 19.2 µg/mL (≈ 47.6 µM).

On to `Cc1ccc(C#N)cc1-n1c(=N)n(C)c2cnc3ccc(-c4ccccc4Cl)cc3c21` [Compound 62, 3-(8-(2-chlorophenyl)-2-imino-3-methyl-2,3-dihydro-1H-imidazo[4,5-c]quinolin-1-yl)-4-methylbenzonitrile], for which, in data set [1], the half-life was 18.5 min. For the same compound, in data set [2], the EC50 was determined as 704 nM. The same compound gave a solubility in “Solubility pH 7.4” of 7.8 µg/mL (≈ 18.4 µM).

For `Cn1c(=N)n(-c2ccccc2)c2c3cc(-c4ccc(Cl)cc4)ccc3ncc21` [Compound 63, 8-(4-chlorophenyl)-3-methyl-1-phenyl-1,3-dihydro-2H-imidazo[4,5-c]quinolin-2-imine], the half-life in data set [1] was more than 30 min. In addition, in data set [2], the EC50 amounted to 1040 nM. Besides, the concentration in solution in the data set “Solubility pH 7.4” (solubility) came to 5.7 µg/mL (≈ 14.8 µM).

As for `COc1cccc(-n2c(=N)n(C)c3cnc4ccc(-c5ccc(Cl)cc5)cc4c32)c1` [Compound 64, 8-(4-chlorophenyl)-1-(3-methoxyphenyl)-3-methyl-1,3-dihydro-2H-imidazo[4,5-c]quinolin-2-imine], the half-life in data set [1] is more than 30 min. The EC50 in data set [2] stood at 1300 nM. Besides, in the data set “Solubility pH 7.4”, the concentration in solution (solubility) was 20.8 µg/mL (≈ 50.1 µM).

Consider `Cc1cccc(-n2c(=N)n(C)c3cnc4ccc(-c5ccc(Cl)cc5)cc4c32)c1` [Compound 66, 8-(4-chlorophenyl)-3-methyl-1-(m-tolyl)-1,3-dihydro-2H-imidazo[4,5-c]quinolin-2-imine], for which the half-life in data set [1] is more than 30 min. The EC50 in data set [2] worked out at 382 nM. The solubility in “Solubility pH 7.4” came to 4 µg/mL (≈ 10 µM).

Turning to `Cc1c(C#N)cccc1-n1c(=N)n(C)c2cnc3ccc(-c4ccc(Cl)cc4)cc3c21` [Compound 69, 3-(8-(4-chlorophenyl)-2-imino-3-methyl-2,3-dihydro-1H-imidazo[4,5-c]quinolin-1-yl)-2-methylbenzonitrile], in data set [1], the half-life is more than 30 min. Besides, the EC50 in data set [2] turned out to be 207 nM. In addition, the solubility in the data set “Solubility pH 7.4” was less than 1 µg/mL.

For the compound `Cc1ccc(-n2c(=N)n(C)c3cnc4ccc(-c5ccc(Cl)cc5)cc4c32)cc1C#N` [Compound 70, 5-(8-(4-chlorophenyl)-2-imino-3-methyl-2,3-dihydro-1H-imidazo[4,5-c]quinolin-1-yl)-2-methylbenzonitrile], the half-life in data set [1] is more than 30 min. In addition, in data set [2], the EC50 stood at 443 nM. The compound also displayed a solubility in “Solubility pH 7.4” of less than 1 µg/mL.

Take `Cc1cc(C#N)cc(-n2c(=N)n(C)c3cnc4ccc(-c5ccc(Cl)cc5)cc4c32)c1` [Compound 71, 3-(8-(4-chlorophenyl)-2-imino-3-methyl-2,3-dihydro-1H-imidazo[4,5-c]quinolin-1-yl)-5-methylbenzonitrile]: the half-life in data set [1] was more than 30 min. Further, the EC50 in data set [2] was found to be 511 nM. The compound also gave a solubility in “Solubility pH 7.4” of less than 1 µg/mL.
